The test system of the assay is rat TTR gene. Description: In vivo editing of TTR in rat liver after LNP delivery (NGS, % editing). Details: species or system rat (Sprague-Dawley). As to the method: LNPs were prepared using various amine lipids in a 4-component lipid system consisting of an ionizable lipid (e.g., an amine lipid), DSPC, cholesterol and a PEG lipid (e.g., PEG2K-DMG, C13 Ether, C14 Ether). In assays for percent liver editing in rats, Cas9 mRNA and chemically modified sgRNA targeting a rat sequence were formulated in LNPs, at either a 1:1 w/w ratio or a 1:2 w/w sgRNA:Cas9 mRNA ratio.
The lipid components were dissolved in 100% ethanol with the lipid component molar ratios described below. The chemically modified sgRNA and Cas9 mRNA were combined and dissolved in 25 mM citrate, 100 mM NaCl, pH 5.0, resulting in a concentration of total RNA cargo of approximately 0.45 mg/mL. The LNPs were formulated with an N:P ratio of about 6, with the ratio of chemically modified sgRNA:Cas9 mRNA at either a 1:1 or 1:2 w/w ratio as described below.
The LNPs were formed by an impinging jet mixing of the lipid in ethanol with two volumes of RNA solution and one volume of water. First, the lipid in ethanol is mixed through a mixing cross with the two volumes of RNA solution. Then, a fourth stream of water is mixed with the outlet stream of the cross through an inline tee. (See, e.g., WO2016010840, FIG. 2). The LNPs were held for 1 hour at room temperature, and further diluted with water (approximately 1:1 v/v). Diluted LNPs were buffer exchanged into 50 mM Tris, 45 mM NaCl, 5% (w/v) sucrose, pH 7.5 (TSS) and concentrated as needed by methods known in the art. The resulting mixture was then filtered using a 0.2 μm sterile filter. The final LNP was stored at 4° C. or −80° C. until further use.
Sprague-Dawley female rats, ranging from 6-10 weeks of age were used in each study. Animals were weighed and dosed based on individual body weight measured the morning of dosing. LNPs were dosed via the lateral tail vein in a volume of 2 mL per kilogram of animal body weight. The animals were periodically observed for adverse effects for at least 24 hours post dose.
For studies measuring in vivo editing in liver, Sprague-Dawley female rats were dosed at 0.1 mpk or 0.03 mpk, unless otherwise noted. Animals were euthanized at 6 or 7 days by carbon dioxide asphyxiation and a heart clip or by ex sanguination via cardiac puncture under isoflourane anesthesia. Blood was collected into serum separator tubes. Liver tissue was collected. Genomic DNA was isolated from the liver tissue for editing measurement by Next-Generation Sequencing (NGS).
In brief, to quantitatively determine the efficiency of editing at the target location in the genome, genomic DNA was isolated and deep sequencing was utilized to identify the presence of insertions and deletions introduced by gene editing.
PCR primers were designed around the target site (e.g., TTR), and the genomic area of interest was amplified. Additional PCR was performed according to the manufacturer's protocols (Illumina) to add the necessary chemistry for sequencing. The amplicons were sequenced on an Illumina MiSeq instrument. The reads were aligned to the […] after eliminating those having low quality scores. The resulting files containing the reads were mapped to the reference genome (BAM files), where reads that overlapped the target region of interest were selected and the number of wild type reads versus the number of reads which contain an insertion, substitution, or deletion was calculated.
The editing percentage (e.g., the “indel efficiency” or “percent indels” or “% editing” or “% indel”) can be defined as the total number of sequence reads with insertions or deletions over the total number of sequence reads, including wild type.
In vivo editing efficiency for materials delivered with formulations including various amine lipid (or ionizable lipid) compounds in Experiments 1 through 14 as described in Tables 3 and 4 was assessed. Editing was measured using G000534 (SEQ ID NO: 5) which targets the rat TTR gene. […]

Setting [1] is: Experiment 9, 0.1 mpk, LNP with PEG2K-DMG.
Setting [2] is: Experiment 5, 0.1 mpk, LNP with PEG2K-DMG.
The mark [3] stands for this setting: Experiment 12, 0.04 mpk, LNP with PEG2K-DMG.
Setting [4] is: Experiment 14, 0.03 mpk, LNP with C13 Ether.

SMILES strings stand for the structures.

Experimental findings from patent US20260337153A1, “IONIZABLE AMINE LIPIDS” (Intellia Therapeutics, Inc., priority 2023, published 2026) are described below.

`CCCCC/C=C\C/C=C\CCCCCCCC(=O)OCC(CCCCCCCCC(=O)OC(CCCCCC)CCCCCC)COC(=O)OCCCN(CC)CC` (stereo not drawn) [Compound 19, 2-((((3-(diethylamino)propoxy)carbonyl)oxy)methyl)-11-oxo-11-(tridecan-7-yloxy)undecyl (9Z,12Z)-octadeca-9,12-dienoate] returned a Mean % editing under setting [1] of 14.4%.

With `CCCCC/C=C\C/C=C\CCCCCCCC(=O)OCC(CCCCCCC(=O)OC(CCCC)CCCC)COC(=O)OCCCN(CC)CC` (stereo not drawn) [Compound 20, 2-((((3-(diethylamino)propoxy)carbonyl)oxy)methyl)-9-(nonan-5-yloxy)-9-oxononyl (9Z,12Z)-octadeca-9,12-dienoate], the Mean % editing under setting [1] is given as 32.0%.

On to `CCCCCCCCOC(CCC(=O)OCC(COC(=O)CCC(OCCCCCCCC)OCCCCCCCC)COC(=O)NCCN(CC)CC)OCCCCCCCC` [Compound 22, 2-((((2-(diethylamino)ethyl)carbamoyl)oxy)methyl)propane-1,3-diyl bis(4,4-bis(octyloxy)butanoate)], for which the Mean % editing (Experiment 8, 0.1 mpk, LNP with PEG2K-DMG) is 61.3%.

For the compound `CCCCC/C=C\C/C=C\CCCCCCCCC(COC(=O)CCCCCC(=O)OC(CCCCCCCC)CCCCCCCC)COC(=O)NCCN(CC)CC` (stereo not drawn) [Compound 23, 1-((11Z,14Z)-2-((((2-(diethylamino)ethyl)carbamoyl)oxy)methyl)icosa-11,14-dien-1-yl) 7-(heptadecan-9-yl) heptanedioate], the Mean % editing is on record as 55.3% (Experiment 6, 0.1 mpk, LNP with PEG2K-DMG) and 54.0% (Experiment 11, 0.1 mpk, LNP with PEG2K-DMG).

As for `CCCCC/C=C\C/C=C\CCCCCCCC(=O)OCC(CCCCCCCCC(=O)OC(CCCCCCCC)CCCCCCCCC)COC(=O)CCC(CCCCCCCC)OC(=O)NCCN(C)CC` (stereo not drawn) [Compound 24, 3-methyl-15-(9-(octadecan-9-yloxy)-9-oxononyl)-9-octyl-7,12-dioxo-8,13-dioxa-3,6-diazahexadecan-16-yl (9Z,12Z)-octadeca-9,12-dienoate], the Mean % editing under setting [2] is reported as 3.6%.

The compound `CCCCC/C=C\C/C=C\CCCCCCCC(=O)OCC(CCCCCCCCC(=O)OC(CCCCCCCC)CCCCCCCCC)COC(=O)CCC(CCCCCCCC)OC(=O)NCCN1CCCC1` (stereo not drawn) [Compound 25, 11-(octadecan-9-yloxy)-11-oxo-2-(((4-(((2-(pyrrolidin-1-yl)ethyl)carbamoyl)oxy)dodecanoyl)oxy)methyl)undecyl (9Z,12Z)-octadeca-9,12-dienoate] displayed a Mean % editing under setting [2] of 17.0%.

The compound `CCCCC/C=C\C/C=C\CCCCCCCC(=O)OCC(CCCCCCCCC(=O)OC(CCCCCCCC)CCCCCCCCC)COC(=O)CCC(CCCC)OC(=O)NCCN(C)CC` (stereo not drawn) [Compound 26, 9-butyl-3-methyl-15-(9-(octadecan-9-yloxy)-9-oxononyl)-7,12-dioxo-8,13-dioxa-3,6-diazahexadecan-16-yl (9Z,12Z)-octadeca-9,12-dienoate] came in with a Mean % editing under setting [2] of 41.9%.

For `CCCCC/C=C\C/C=C\CCCCCCCC(=O)OCC(CCCCCCCCC(=O)OC(CCCCCCCC)CCCCCCCCC)COC(=O)CCC(CCCC)OC(=O)NCCN1CCCC1` (stereo not drawn) [Compound 27, 11-(octadecan-9-yloxy)-11-oxo-2-(((4-(((2-(pyrrolidin-1-yl)ethyl)carbamoyl)oxy)octanoyl)oxy)methyl)undecyl (9Z,12Z)-octadeca-9,12-dienoate], under setting [2], the Mean % editing was found to be 55.3%.

In the case of `CCCCCCCCC(CCCCCCCC)OC(=O)CCCC(=O)OCC(COC(=O)CCCC(=O)OC(CCCCCCCC)CCCCCCCC)COC(=O)NCCN1CCCCC1` [Compound 28, di(heptadecan-9-yl) O,O′-(2-((((2-(piperidin-1-yl)ethyl)carbamoyl)oxy)methyl)propane-1,3-diyl) diglutarate], the Mean % editing under setting [3] is recorded as 11.0%.

Compound `CCCCCCCCC(CCCCCCCC)OC(=O)CCCC(=O)OCC(COC(=O)CCCC(=O)OC(CCCCCCCC)CCCCCCCC)COC(=O)NCCN1CCCC1` [Compound 29, di(heptadecan-9-yl) O,O′-(2-((((2-(pyrrolidin-1-yl)ethyl)carbamoyl)oxy)methyl)propane-1,3-diyl) diglutarate] registered a Mean % editing under setting [3] of 27.3%.

The compound `CCCCCCCCC(CCCCCCCC)OC(=O)CCCC(=O)OCC(COC(=O)CCCC(=O)OC(CCCCCCCC)CCCCCCCC)COC(=O)OCCCN(C)CC` [Compound 30, O,O′-(2-((((3-(ethyl(methyl)amino)propoxy)carbonyl)oxy)methyl)propane-1,3-diyl) di(heptadecan-9-yl) diglutarate] had a Mean % editing under setting [3] of 12.6%.

`CCCCCCCCC(CCCCCCCC)OC(=O)CCCC(=O)OCC(COC(=O)CCCC(=O)OC(CCCCCCCC)CCCCCCCC)COC(=O)OCCCN(C)C` [Compound 31, O,O′-(2-((((3-(dimethylamino)propoxy)carbonyl)oxy)methyl)propane-1,3-diyl) di(heptadecan-9-yl) diglutarate] came in with a Mean % editing under setting [3] of 4.0%.

For the compound `CCCCCCCCC(CCCCCCCC)OC(=O)CCCC(=O)OCC(COC(=O)CCCC(=O)OC(CCCCCCCC)CCCCCCCC)COC(=O)OCCCN1CCCCC1` [Compound 32, di(heptadecan-9-yl) O,O′-(2-((((3-(piperidin-1-yl)propoxy)carbonyl)oxy)methyl)propane-1,3-diyl) diglutarate], the Mean % editing under setting [3] worked out at 1.2%.

Under setting [3], `CCCCCCCCC(CCCCCCCC)OC(=O)CCCC(=O)OCC(COC(=O)CCCC(=O)OC(CCCCCCCC)CCCCCCCC)COC(=O)OCCCN1CCCC1` [Compound 33, di(heptadecan-9-yl) O,O′-(2-((((3-(pyrrolidin-1-yl)propoxy)carbonyl)oxy)methyl)propane-1,3-diyl) diglutarate] registered a Mean % editing of 20.0%. For the same compound, the “Mean % editing in rat liver” value (NGS, dose 0.03 mpk, LNP with G000534 sgRNA and Cas9 mRNA 1:2 w/w, 3% C13 Ether (Compound 53: 3% PEG2K-DMG), N=5 (Compound 33: N=4)) came out at 12.2%.

Take `CCCCCCCCC(CCCCCCCC)OC(=O)CCCC(=O)OCC(COC(=O)CCCC(=O)OC(CCCCCCCC)CCCCCCCC)COC(=O)CCCN(C)C` [Compound 34, O,O′-(2-(((4-(dimethylamino)butanoyl)oxy)methyl)propane-1,3-diyl) di(heptadecan-9-yl) diglutarate]: under setting [4], the Mean % editing worked out at 14.9%.

As to `CCCCCCCCC(CCCCCCCC)OC(=O)CCCC(=O)OCC(COC(=O)CCCC(=O)OC(CCCCCCCC)CCCCCCCC)OC(=O)NCCN(CC)CC` [Compound 35, O,O′-(2-(((2-(diethylamino)ethyl)carbamoyl)oxy)propane-1,3-diyl) di(heptadecan-9-yl) diglutarate], the Mean % editing under setting [4] came out at 10.3%.

For the compound `CCCCCCCCC(CCCCCCCC)OC(=O)CCCC(=O)OCC(C)(COC(=O)CCCC(=O)OC(CCCCCCCC)CCCCCCCC)COC(=O)NCCN(CC)CC` [Compound 36, O,O′-(2-((((2-(diethylamino)ethyl)carbamoyl)oxy)methyl)-2-methylpropane-1,3-diyl) di(heptadecan-9-yl) diglutarate], under setting [3], the Mean % editing is listed as 27.4%.

The compound `CCCCCCC(CCCCCC)OC(=O)CCCC(=O)OCC(COC(=O)CCCC(=O)OC(CCCCCC)CCCCCC)COC(=O)NCCN(CC)CC` [Compound 37, O,O′-(2-((((2-(diethylamino)ethyl)carbamoyl)oxy)methyl)propane-1,3-diyl) di(tridecan-7-yl) diglutarate] yielded a Mean % editing under setting [3] of 38.1%.

For `CCCCCCCCC(CCCCCCCC)C(=O)OCC(COC(=O)NCCN(CC)CC)COC(=O)C(CCCCCCCC)CCCCCCCC` [Compound 40, 2-((((2-(diethylamino)ethyl)carbamoyl)oxy)methyl)propane-1,3-diyl bis(2-octyldecanoate)], the Mean % editing under setting [4] turned out to be 1.0%.
